Test results: patent publication US6340689B1 (priority 1999, dated 2002)
Converted amounts (≈) assume the structure as drawn.

Assays:
[1] = system: L. pneumophila serogroup 1; experiment: microbe, parasite or virus in culture; assay type: cell-based, Legionella pneumophila; conditions: Legionella pneumophila; for MIC: 48 h, read-out: MIC Range; for MIC90: L. pneumophila serogroup 1 (n = 85)
[2] = system: L. pneumophila serogroup 2; experiment: microbe, parasite or virus in culture; assay type: cell-based; conditions: Legionella pneumophila; for MIC: 48 h, read-out: MIC Range
[3] = system: L. pneumophila serogroup 3; experiment: microbe, parasite or virus in culture; assay type: cell-based; conditions: Legionella pneumophila; for MIC: 48 h, read-out: MIC Range
[4] = system: L. pneumophila serogroup 4; experiment: microbe, parasite or virus in culture; assay type: cell-based; conditions: Legionella pneumophila; for MIC: 48 h, read-out: MIC Range
[5] = system: L. pneumophila serogroup 5; experiment: microbe, parasite or virus in culture; assay type: cell-based; conditions: Legionella pneumophila; for MIC: 48 h, read-out: MIC Range
[6] = system: L. pneumophila serogroup 6; experiment: microbe, parasite or virus in culture; assay type: cell-based; conditions: Legionella pneumophila; for MIC: 48 h, read-out: MIC Range
[7] = system: L. pneumophila serogroup 7; experiment: microbe, parasite or virus in culture; assay type: cell-based; conditions: Legionella pneumophila; for MIC: 48 h, read-out: MIC Range
[8] = system: L. pneumophila serogroup 8, 9; experiment: microbe, parasite or virus in culture; assay type: cell-based; conditions: Legionella pneumophila; for MIC: 48 h, read-out: MIC Range
[9] = system: L. dumoffii; experiment: organism not typed; assay type: cell-based; conditions: for MIC: 48 h, read-out: MIC Range
[10] = system: L. micadadei; experiment: organism not typed; assay type: cell-based, L. micdadei; conditions: for MIC: 48 h, read-out: MIC Range
[11] = system: L. longbeacheae; experiment: organism not typed; assay type: cell-based; conditions: for MIC: 48 h, read-out: MIC Range
[12] = system: Other Legionella spp.; experiment: microbe, parasite or virus in culture; assay type: cell-based; conditions: for MIC: 48 h, read-out: MIC Range
[13] = system: Erythromycin-susceptible L. pneumophila; assay type: cell-based, Legionella pneumophila; conditions: Erythromycin-susceptible L. pneumophila (n = 15); 4 × MIC; mean ± SD
[14] = system: Erythromycin-susceptible Legionella spp. other than L. pneumophila; assay type: cell-based; conditions: Erythromycin-susceptible Legionella spp. (n = 13); 4 × MIC; mean ± SD

CC[C@H]1OC(=O)[C@H](C)[C@@H](O[C@H]2C[C@@](C)(OC)[C@@H](O)[C@H](C)O2)[C@H](C)[C@@H](O[C@@H]2O[C@H](C)C[C@H](N(C)C)[C@H]2O)[C@](C)(O)C[C@@H](C)C(=O)[C@H](C)[C@@H](O)[C@]1(C)O [Erythromycin]
MIC50 [1]: 0.25 µg/mL (≈ 0.341 µM)
MIC [1]: 0.03 to 1 µg/mL (≈ 0.0409 to 1.36 µM)
MIC90 [1]: 1 µg/mL (≈ 1.36 µM)
MIC50 [2]: 0.25 µg/mL (≈ 0.341 µM)
MIC90 [2]: 0.25 µg/mL (≈ 0.341 µM)
MIC [2]: 0.008 to 0.5 µg/mL (≈ 0.0109 to 0.681 µM)
MIC50 [3]: 0.25 µg/mL (≈ 0.341 µM)
MIC90 [3]: 0.5 µg/mL (≈ 0.681 µM)
MIC [3]: 0.06 to 0.5 µg/mL (≈ 0.0818 to 0.681 µM)
MIC50 [4]: 0.5 µg/mL (≈ 0.681 µM)
MIC90 [4]: 0.5 µg/mL (≈ 0.681 µM)
MIC [4]: 0.016 to 0.5 µg/mL (≈ 0.0218 to 0.681 µM)
MIC50 [5]: 0.25 µg/mL (≈ 0.341 µM)
MIC90 [5]: 0.5 µg/mL (≈ 0.681 µM)
MIC [5]: 0.06 to 1 µg/mL (≈ 0.0818 to 1.36 µM)
MIC50 [6]: 0.12 µg/mL (≈ 0.164 µM)
MIC90 [6]: 0.25 µg/mL (≈ 0.341 µM)
MIC [6]: 0.008 to 0.25 µg/mL (≈ 0.0109 to 0.341 µM)
MIC50 [7]: 0.12 µg/mL (≈ 0.164 µM)
MIC90 [7]: 0.5 µg/mL (≈ 0.681 µM)
MIC [7]: 0.12 to 0.5 µg/mL (≈ 0.164 to 0.681 µM)
MIC50 [8]: 0.25 µg/mL (≈ 0.341 µM)
MIC90 [8]: 0.25 µg/mL (≈ 0.341 µM)
MIC [8]: 0.25 µg/mL (≈ 0.341 µM)
MIC50 [9]: 0.25 µg/mL (≈ 0.341 µM)
MIC90 [9]: 0.5 µg/mL (≈ 0.681 µM)
MIC [9]: 0.25 to 0.5 µg/mL (≈ 0.341 to 0.681 µM)
MIC50 [10]: 0.5 µg/mL (≈ 0.681 µM)
MIC90 [10]: 1 µg/mL (≈ 1.36 µM)
MIC [10]: 0.25 to 1 µg/mL (≈ 0.341 to 1.36 µM)
MIC50 [11]: 0.25 µg/mL (≈ 0.341 µM)
MIC90 [11]: 0.5 µg/mL (≈ 0.681 µM)
MIC [11]: 0.008 to 0.5 µg/mL (≈ 0.0109 to 0.681 µM)
MIC50 [12]: 0.5 µg/mL (≈ 0.681 µM)
MIC90 [12]: 1 µg/mL (≈ 1.36 µM)
MIC [12]: 0.016 to 1 µg/mL (≈ 0.0218 to 1.36 µM)
Mean PAE [13]: 0.93 ± 1 h
Mean PAE [14]: 2.06 ± 2 h

CC[C@H]1OC(=O)[C@H](C)[C@@H](O[C@H]2C[C@@](C)(OC)[C@@H](O)[C@H](C)O2)[C@H](C)[C@@H](O[C@@H]2O[C@H](C)C[C@H](N(C)C)[C@H]2O)[C@](C)(OC)C[C@@H](C)C(=O)[C@H](C)[C@@H](O)[C@]1(C)O [Clarithromycin]
MIC50 [1]: 0.06 µg/mL (≈ 0.0802 µM)
MIC [1]: 0.004 to 0.12 µg/mL (≈ 0.00535 to 0.16 µM)
MIC90 [1]: 0.06 µg/mL (≈ 0.0802 µM)
MIC50 [2]: 0.03 µg/mL (≈ 0.0401 µM)
MIC90 [2]: 0.06 µg/mL (≈ 0.0802 µM)
MIC [2]: 0.004 to 0.06 µg/mL (≈ 0.00535 to 0.0802 µM)
MIC50 [3]: 0.03 µg/mL (≈ 0.0401 µM)
MIC90 [3]: 0.06 µg/mL (≈ 0.0802 µM)
MIC [3]: 0.016 to 0.06 µg/mL (≈ 0.0214 to 0.0802 µM)
MIC50 [4]: 0.03 µg/mL (≈ 0.0401 µM)
MIC90 [4]: 0.06 µg/mL (≈ 0.0802 µM)
MIC [4]: 0.004 to 0.06 µg/mL (≈ 0.00535 to 0.0802 µM)
MIC50 [5]: 0.03 µg/mL (≈ 0.0401 µM)
MIC90 [5]: 0.06 µg/mL (≈ 0.0802 µM)
MIC [5]: 0.03 to 0.06 µg/mL (≈ 0.0401 to 0.0802 µM)
MIC50 [6]: 0.016 µg/mL (≈ 0.0214 µM)
MIC90 [6]: 0.06 µg/mL (≈ 0.0802 µM)
MIC [6]: 0.004 to 0.06 µg/mL (≈ 0.00535 to 0.0802 µM)
MIC50 [7]: 0.016 µg/mL (≈ 0.0214 µM)
MIC90 [7]: 0.06 µg/mL (≈ 0.0802 µM)
MIC [7]: 0.016 to 0.06 µg/mL (≈ 0.0214 to 0.0802 µM)
MIC50 [8]: 0.06 µg/mL (≈ 0.0802 µM)
MIC90 [8]: 0.06 µg/mL (≈ 0.0802 µM)
MIC [8]: 0.06 µg/mL (≈ 0.0802 µM)
MIC50 [9]: 0.03 µg/mL (≈ 0.0401 µM)
MIC90 [9]: 0.06 µg/mL (≈ 0.0802 µM)
MIC [9]: 0.03 to 0.06 µg/mL (≈ 0.0401 to 0.0802 µM)
MIC50 [10]: 0.06 µg/mL (≈ 0.0802 µM)
MIC90 [10]: 0.06 µg/mL (≈ 0.0802 µM)
MIC [10]: 0.03 to 0.12 µg/mL (≈ 0.0401 to 0.16 µM)
MIC50 [11]: 0.06 µg/mL (≈ 0.0802 µM)
MIC90 [11]: 0.06 µg/mL (≈ 0.0802 µM)
MIC [11]: 0.008 to 0.06 µg/mL (≈ 0.0107 to 0.0802 µM)
MIC50 [12]: 0.03 µg/mL (≈ 0.0401 µM)
MIC90 [12]: 0.12 µg/mL (≈ 0.16 µM)
MIC [12]: 0.004 to 0.12 µg/mL (≈ 0.00535 to 0.16 µM)
Mean PAE [13]: 0.72 ± 2 h
Mean PAE [14]: 0.98 ± 2 h

CC[C@H]1OC(=O)[C@H](C)[C@@H](O[C@H]2C[C@@](C)(OC)[C@@H](O)[C@H](C)O2)[C@H](C)[C@@H](O[C@@H]2O[C@H](C)C[C@H](N(C)C)[C@H]2O)[C@](C)(O)C[C@@H](C)CN(C)[C@H](C)[C@@H](O)[C@]1(C)O [Azithromycin]
MIC50 [1]: 0.06 µg/mL (≈ 0.0801 µM)
MIC [1]: 0.008 to 1 µg/mL (≈ 0.0107 to 1.34 µM)
MIC90 [1]: 0.5 µg/mL (≈ 0.668 µM)
MIC50 [2]: 0.06 µg/mL (≈ 0.0801 µM)
MIC90 [2]: 0.12 µg/mL (≈ 0.16 µM)
MIC [2]: 0.008 to 0.12 µg/mL (≈ 0.0107 to 0.16 µM)
MIC50 [3]: 0.12 µg/mL (≈ 0.16 µM)
MIC90 [3]: 0.25 µg/mL (≈ 0.334 µM)
MIC [3]: 0.016 to 0.25 µg/mL (≈ 0.0214 to 0.334 µM)
MIC50 [4]: 0.12 µg/mL (≈ 0.16 µM)
MIC90 [4]: 0.12 µg/mL (≈ 0.16 µM)
MIC [4]: 0.008 to 0.25 µg/mL (≈ 0.0107 to 0.334 µM)
MIC50 [5]: 0.03 µg/mL (≈ 0.0401 µM)
MIC90 [5]: 0.25 µg/mL (≈ 0.334 µM)
MIC [5]: 0.008 to 0.5 µg/mL (≈ 0.0107 to 0.668 µM)
MIC50 [6]: 0.06 µg/mL (≈ 0.0801 µM)
MIC90 [6]: 0.12 µg/mL (≈ 0.16 µM)
MIC [6]: 0.016 to 0.25 µg/mL (≈ 0.0214 to 0.334 µM)
MIC50 [7]: 0.06 µg/mL (≈ 0.0801 µM)
MIC90 [7]: 0.06 µg/mL (≈ 0.0801 µM)
MIC [7]: 0.06 µg/mL (≈ 0.0801 µM)
MIC50 [8]: 0.06 µg/mL (≈ 0.0801 µM)
MIC90 [8]: 0.06 µg/mL (≈ 0.0801 µM)
MIC [8]: 0.06 µg/mL (≈ 0.0801 µM)
MIC50 [9]: 0.12 µg/mL (≈ 0.16 µM)
MIC90 [9]: 0.25 µg/mL (≈ 0.334 µM)
MIC [9]: 0.12 to 0.25 µg/mL (≈ 0.16 to 0.334 µM)
MIC50 [10]: 0.25 µg/mL (≈ 0.334 µM)
MIC90 [10]: 0.25 µg/mL (≈ 0.334 µM)
MIC [10]: 0.016 to 0.25 µg/mL (≈ 0.0214 to 0.334 µM)
MIC50 [11]: 0.12 µg/mL (≈ 0.16 µM)
MIC90 [11]: 0.25 µg/mL (≈ 0.334 µM)
MIC [11]: 0.016 to 0.25 µg/mL (≈ 0.0214 to 0.334 µM)
MIC50 [12]: 0.12 µg/mL (≈ 0.16 µM)
MIC90 [12]: 0.5 µg/mL (≈ 0.668 µM)
MIC [12]: 0.016 to 0.5 µg/mL (≈ 0.0214 to 0.668 µM)
Mean PAE [13]: 2.91 ± 3 h
Mean PAE [14]: 1.86 ± 2 h
